Measured values taken from article PMC2099433, “The binding site for neohesperidin dihydrochalcone at the human sweet taste receptor” (BMC Structural Biology, 2007).

Tests used:
[1] = test system: receptors that contain the entire rat Tas1r3 or its heptahelical domain; assay: Calcium response, receptors and chimeras with rat Tas1r3 heptahelical domain; format: cell-based, human; settings: 1 mM NHDC
From the text: (§1) In order to elucidate the putative binding site for NHDC, we cotransfected mixtures of plasmid DNAs for the rat and human TAS1R2 and TAS1R3 receptor subunits in HEK293T cells stably expressing the chimeric G-protein G16Gust44 and measured cellular calcium responses by fluorometry following bath application of various sweet tasting compounds. […].
(§2) Figure 1 Chemical structure and calcium responses elicited by neohesperidin dihydrochalcone. (A) Structure of neohesperidin dihydrochalcone. Numbers denote carbon atom positions. (B) Representative calcium traces elicited upon stimulation with different concentrations of neohesperidin dihydrochalcone (NHDC) in HEK293T-G16Gust44 cells cotransfected with DNA for hTAS1R2/hTAS1R3. […]
(§3) The cDNAs for TAS1Rs tagged at the C-terminus with the herpes simplex virus glycoprotein D (HSV) were transiently transfected into HEK293T cells stably expressing the chimeric G-protein subunit G16Gust44 [44] using Lipofectamine 2000 (Invitrogen, Carlsbad, CA) according to the manufacturer's protocol. […] We monitored calcium mobilization following receptor stimulation with sweet tastants by an automated fluorometric imaging plate reader (FLIPR, Molecular Devices, Sunnyvale, CA). […] The obtained calcium signals were corrected for the response of mock transfected cells and normalized to the fluorescence of cells prior to the application of the stimulus using ΔF/F = (F-F0)/F0. […]

[2] = target: T1, human TAS1R3 and rat Tas1r2 (Homo sapiens, UniProt Q7RTX0); assay: Calcium response, interspecies subunit combination; format: cell-based; settings: 1 mM NHDC
T1 construct: expressed in transfected cells; host or cells: HEK293T cells stably expressing G16Gust44
From the text: (§4) In order to elucidate the putative binding site for NHDC, we cotransfected mixtures of plasmid DNAs for the rat and human TAS1R2 and TAS1R3 receptor subunits in HEK293T cells stably expressing the chimeric G-protein G16Gust44 and measured cellular calcium responses by fluorometry following bath application of various sweet tasting compounds.
(§5) Figure 1 Chemical structure and calcium responses elicited by neohesperidin dihydrochalcone. (A) Structure of neohesperidin dihydrochalcone. Numbers denote carbon atom positions. […]
(§6) The cDNAs for TAS1Rs tagged at the C-terminus with the herpes simplex virus glycoprotein D (HSV) were transiently transfected into HEK293T cells stably expressing the chimeric G-protein subunit G16Gust44 [44] using Lipofectamine 2000 (Invitrogen, Carlsbad, CA) according to the manufacturer's protocol. […] We monitored calcium mobilization following receptor stimulation with sweet tastants by an automated fluorometric imaging plate reader (FLIPR, Molecular Devices, Sunnyvale, CA). […] The obtained calcium signals were corrected for the response of mock transfected cells and normalized to the fluorescence of cells prior to the application of the stimulus using ΔF/F = (F-F0)/F0. Concentration-response curves and EC50 and IC50 values were calculated in SigmaPlot by nonlinear regression using the function f = ((a-d)/(1+(x/EC50)^nH)+d) and f = (a-b)/[1+(x/IC50)^nH]+b, respectively.

[3] = target: T2, rodent sweet taste receptor (Rattus norvegicus, UniProt Q923K1); assay: Calcium response, rodent sweet taste receptor; format: cell-based
T2 construct: expressed in transfected cells; host or cells: HEK293T cells stably expressing G16Gust44
From the text: as §4, §5, §6

[4] = test system: rat Tas1r3 with heptahelical domain of human TAS1R3, coexpressed with rat Tas1r2; assay: Calcium response, chimeric receptor; format: cell-based; settings: 1 mM NHDC
From the text: as §1, §2, §3

T2 sequence (Q923K1 21-858): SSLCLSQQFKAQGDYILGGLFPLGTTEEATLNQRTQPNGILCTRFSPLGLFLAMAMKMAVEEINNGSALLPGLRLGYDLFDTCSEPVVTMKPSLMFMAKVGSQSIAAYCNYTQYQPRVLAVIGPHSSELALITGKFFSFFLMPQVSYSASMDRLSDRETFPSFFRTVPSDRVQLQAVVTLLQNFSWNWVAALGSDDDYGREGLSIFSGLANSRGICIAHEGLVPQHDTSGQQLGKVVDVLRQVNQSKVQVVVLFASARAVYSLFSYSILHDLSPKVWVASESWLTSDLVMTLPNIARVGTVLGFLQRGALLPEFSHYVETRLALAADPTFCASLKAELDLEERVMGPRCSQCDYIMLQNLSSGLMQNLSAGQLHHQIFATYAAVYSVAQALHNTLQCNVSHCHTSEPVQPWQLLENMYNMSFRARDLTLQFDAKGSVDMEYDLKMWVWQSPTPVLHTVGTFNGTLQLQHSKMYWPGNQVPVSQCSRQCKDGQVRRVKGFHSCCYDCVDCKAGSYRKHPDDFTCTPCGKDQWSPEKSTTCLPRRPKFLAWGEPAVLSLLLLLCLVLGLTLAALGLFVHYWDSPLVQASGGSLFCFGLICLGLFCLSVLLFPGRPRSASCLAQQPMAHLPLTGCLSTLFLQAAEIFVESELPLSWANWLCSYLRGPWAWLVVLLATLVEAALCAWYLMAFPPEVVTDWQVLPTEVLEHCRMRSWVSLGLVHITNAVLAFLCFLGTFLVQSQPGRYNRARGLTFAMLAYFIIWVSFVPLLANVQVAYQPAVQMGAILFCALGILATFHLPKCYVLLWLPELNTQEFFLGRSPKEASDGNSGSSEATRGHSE
T2 sequence (Q9Z0R7 20-843 partner): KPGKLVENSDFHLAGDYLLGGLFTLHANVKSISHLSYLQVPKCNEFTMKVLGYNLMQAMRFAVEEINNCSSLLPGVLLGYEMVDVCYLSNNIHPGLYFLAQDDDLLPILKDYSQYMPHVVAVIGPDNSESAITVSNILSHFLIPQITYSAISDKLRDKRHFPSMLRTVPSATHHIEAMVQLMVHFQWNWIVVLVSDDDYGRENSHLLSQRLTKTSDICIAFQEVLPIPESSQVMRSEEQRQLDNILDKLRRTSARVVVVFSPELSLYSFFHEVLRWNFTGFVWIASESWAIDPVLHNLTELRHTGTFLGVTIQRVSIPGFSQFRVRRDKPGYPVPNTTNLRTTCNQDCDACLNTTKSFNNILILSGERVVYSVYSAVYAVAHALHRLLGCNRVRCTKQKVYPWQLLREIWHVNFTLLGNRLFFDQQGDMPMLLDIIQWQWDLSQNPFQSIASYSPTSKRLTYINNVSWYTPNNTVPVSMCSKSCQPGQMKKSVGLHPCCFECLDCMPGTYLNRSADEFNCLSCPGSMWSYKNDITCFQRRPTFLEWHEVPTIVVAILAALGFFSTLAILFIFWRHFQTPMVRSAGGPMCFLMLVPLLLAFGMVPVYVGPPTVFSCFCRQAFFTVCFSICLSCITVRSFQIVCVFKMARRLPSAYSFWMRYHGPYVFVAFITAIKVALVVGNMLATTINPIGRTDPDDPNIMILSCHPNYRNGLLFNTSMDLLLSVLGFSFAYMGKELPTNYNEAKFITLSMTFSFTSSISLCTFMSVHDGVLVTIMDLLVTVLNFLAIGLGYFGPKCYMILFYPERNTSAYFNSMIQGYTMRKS
T1 sequence (Q7RTX0 21-852): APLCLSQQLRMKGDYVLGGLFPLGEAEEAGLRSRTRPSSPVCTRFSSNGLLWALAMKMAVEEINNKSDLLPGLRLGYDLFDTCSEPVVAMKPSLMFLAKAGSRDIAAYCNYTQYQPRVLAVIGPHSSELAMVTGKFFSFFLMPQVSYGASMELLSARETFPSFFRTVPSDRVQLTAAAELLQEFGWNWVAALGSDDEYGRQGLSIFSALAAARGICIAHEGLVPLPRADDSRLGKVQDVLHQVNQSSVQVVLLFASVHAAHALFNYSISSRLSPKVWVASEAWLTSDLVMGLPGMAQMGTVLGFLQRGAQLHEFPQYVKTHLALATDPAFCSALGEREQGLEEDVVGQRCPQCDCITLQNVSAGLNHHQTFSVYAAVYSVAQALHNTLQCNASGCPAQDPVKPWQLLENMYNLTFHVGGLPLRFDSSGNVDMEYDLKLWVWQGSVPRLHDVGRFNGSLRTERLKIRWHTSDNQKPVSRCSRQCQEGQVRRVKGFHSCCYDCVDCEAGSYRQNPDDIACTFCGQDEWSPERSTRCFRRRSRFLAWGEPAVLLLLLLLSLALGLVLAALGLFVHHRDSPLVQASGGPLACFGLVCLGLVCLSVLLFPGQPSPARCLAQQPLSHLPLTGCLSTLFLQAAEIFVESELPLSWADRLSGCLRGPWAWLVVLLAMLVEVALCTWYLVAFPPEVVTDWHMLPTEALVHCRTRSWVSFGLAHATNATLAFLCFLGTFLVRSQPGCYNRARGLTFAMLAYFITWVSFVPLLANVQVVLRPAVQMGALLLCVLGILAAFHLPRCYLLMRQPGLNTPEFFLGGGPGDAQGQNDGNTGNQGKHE
T1 sequence (Q9Z0R7 20-843 partner): as the sequence (Q9Z0R7 20-843 partner) above

- calcium response [1]: did not respond to NHDC
- calcium response [2]: elicited calcium responses
- receptor activation [3]: not the rodent sweet taste receptor
- calcium response [4]: sensitive for NHDC
SMILES: COc1ccc(CCC(=O)c2c(O)cc(O[C@@H]3O[C@H](CO)[C@@H](O)[C@H](O)[C@H]3O[C@@H]3O[C@@H](C)[C@H](O)[C@@H](O)[C@H]3O)cc2O)cc1O [NHDC, neohesperidin dihydrochalcone]
